The text below walks through data of patent publication US20240108745A1, “BIOACTIVE SUBSTANCE CONJUGATE, PREPARATION METHOD THEREFOR AND USE THEREOF” (MEDILINK THERAPEUTICS (SUZHOU) CO., LTD., priority 2021, published 2024).

As usually defined, the EC50 is the concentration that produces a half-maximal response. A low value points to higher potency in that assay.

Where two headings read alike, the source gives them in different places.

The subject of one data set is A431. Description: Assay II of bioactive molecules on cell viability in vitro (CCK8). Format: cell-based. The conditions noted are these: Homo sapiens, A-431; CCK8, 3-4 days. As for the experimental part: (§1) Tumor cells NUCG-4, PC-9, HT29, NCI-H358, KYSE520, A431 and A549 were first cultured; the bioactive molecules or fragments of the present disclosure were co-cultured with tumor cells, and then CCK8 reagent (Dojindo Laboratories (Shanghai), Cat: CK04, Lot: JJ744) was added, and the activity of dehydrogenase in mitochondria was detected by reading (detection wavelength 450 nm) on a microplate reader (manufacturer: Molecular Devices, model: SpectraMax M2), to evaluate the inhibitory effect of bioactive molecules on cell proliferation.
(§2) In vitro cell viability assay method: the tumor cells were digested by conventional methods using trypsin, and cells in tube were collected and counted, and then resuspended in the corresponding assay media (containing 2% FBS), which was added to a 96-well plate at 5000-10000 cells/well. Bioactive molecules were diluted with DMSO, and then 100 μL was added to a 96-well plate, the initial concentration was 10 μM, followed by 3-fold serial dilution (12 concentration gradients). The plate was incubated for 3-4 days at 37° C. under 5% CO2. Then, 20 μL of CCK8 reagent was added to each well, and the reaction was carried out for 2-6 h. The plate was read on a microplate reader (detection wavelength was 450 nm).

The test system of another data set is A549. The data set is described as above. The conditions noted are these: Homo sapiens, CCK8, 3-4 days. Format: cell-based. As for the experimental part: as §1, §2
The subject of a further data set is HT29. The data set is described as above. The class given is cell-based. The conditions noted are these: Homo sapiens, HT-29; CCK8, 3-4 days. As for the experimental part:
as §1, §2

A further data set deals with KYSE520. The description is as above. The class given is cell-based. The conditions noted are these: Homo sapiens, KYSE-520; CCK8, 3-4 days. The protocol:
as §1, §2

In another data set the test system is NCI-H358. The description is as above. Format: cell-based. The conditions noted are these: Homo sapiens, CCK8, 3-4 days. As for the experimental part:
as §1, §2

The subject of the next data set is NUCG-4. The description is as above. The conditions noted are these: CCK8, 3-4 days. The class given is cell-based. The protocol: as §1, §2
A further data set has as its system PC-9. The data set is described as above. The class given is cell-based. The conditions noted are these: Homo sapiens, CCK8, 3-4 days. The protocol:
as §1, §2

The conditions of data set [1]: human plasma 37° C., ADC 200 μg/mL, A1.9 released from B7H3-ADC-07(DAR8), DXD from B7H3-C1-ADC-21(DAR4). As for the experimental part:
The appropriate concentration of internal standard stock solution was prepared with DMSO, and then acetonitrile or other reagents were used to prepare the appropriate concentration of the internal standard-containing precipitant.
Incubation of sample: the bacteriostatic agent ProClin was added to the plasma of each genera (human, cynomolgus monkey, ICR mouse) and PBS containing 1% BSA, and the final concentration of ProClin was 0.1%, Sterile operations were adopted. 40 μL working solution of test substance and 360 μL of human plasma were mixed to prepare 200 μg/mL of incubation sample. The plate was sealed with a film, and then incubated at 37° C. under 5% CO2 in an incubator, with a shaking speed of 80 times/mm. At 0 h, 4 h, 24 h, 2 d, 3 d, 7 d, 10 d, 14 d, 17 d, 21 d and 28 d, 20 μL of plasma sample was transferred, to which was added 200 μL of precipitant (containing internal standard), and completely mixed to precipitate the proteins.
All samples were subject to protein precipitating, and then centrifuged to collect the supernatant, which was diluted with water, and analyzed by LC-MS/MS.

Regarding `CC[C@@]1(O)C(=O)OCc2c1cc1n(c2=O)Cc2c-1nc1cc3c(cc1c2CCCO)OCO3` [Example A1.9, (S)-7-ethyl-7-hydroxy-14-(3-hydroxypropyl)-10,13-dihydro-11H-[1,3]dioxolo[4,5-g]pyrano[3′,4′:6,7]indolizino[1,2-b]quinolin-8,11(7H)-dione], the concentration for a half-maximal effect (EC50) was found to be 5.71 nM in the data set on A431; 65.9 nM with A549; 20.3 nM in the data set on HT29; 49.6 nM in the data set on KYSE520; 46.2 nM in the data set on NCI-H358; 8.73 nM in the data set with NUCG-4. Also, in the data set with PC-9, the EC50 stood at 2.06 nM. Also, the “Release ratio (%)” value in data set [1] (day 0) turned out to be 0.14%; in data set [1] (day 0.17), 0.10%; in data set [1] (day 1), 0.11%; in data set [1] (day 2), 0.16%; in data set [1] (day 3), 0.14%; in data set [1] (day 7) it was 0.19%. The “Release ratio (%)” value came to 0.24% in data set [1] (day 10); 0.35% in data set [1] (day 14); 0.40% in data set [1] (day 17); 0.46% in data set [1] (day 21); 0.82% in data set [1] (day 28).
